Consider 21 compounds from US9624180B2, “Squaric derivatives for the treatment of hepatitis C” (priority 2013, dated 2017).

This experiment concerns HCV pseudoparticles (genotype 1a HCV E1 and E2 envelope, H77C isolate). Nature of the experiment: HCV pseudoparticle infection assay (luciferase reporter, entry into Huh7 cells). The note with it: Hepatitis C virus, Huh-7, 48 h. The format is cell-based, HCV genotype 1a. (A reporter such as luciferase makes a cellular process visible.)
Setting [1] is: read-out: EC50 (1a, nM), genotype 1a HCV pseudoparticles, Huh7 cells, luciferase 2 days after infection, average of duplicates.
The mark [2] stands for this setting: read-out: EC50 (1a, nM), genotype 1a HCV pseudoparticles, Huh7 cells, luciferase 2 days after infection, class symbol.

Molecules are shown by their SMILES. Where two headings read alike, the source gives them in different places.

What is called EC50 is the concentration at which the effect is half-maximal. On to `O=C(N[C@@H](CCNc1c(NCC2CC2)c(=O)c1=O)C(=O)NCC1CC1)c1ccc(Nc2nc(NC3(c4ccc(Cl)cc4)CC3)nc(OCC(F)(F)F)n2)cc1` [Compound 1011], for which the EC50 reads like this: under setting [1], 5.98 nM; under setting [2], 0.01 to 10 nM. `O=C(N[C@@H](CCNc1c(Nc2ccccc2)c(=O)c1=O)C(=O)Nc1ccccc1)c1ccc(Nc2nc(NC3(c4ccc(Cl)cc4)CC3)nc(OCC(F)(F)F)n2)cc1` [Compound 1014]: the EC50 under setting [2] lay in the range of 10 to 1000 nM. Same read-out and setting: in the case of `O=C(N[C@@H](CCNc1c(N[C@@H]2C[C@H]3CC[C@@H]2C3)c(=O)c1=O)C(=O)O)c1ccc(Nc2nc(NC3(c4ccc(Cl)cc4)CC3)nc(OCC(F)(F)F)n2)cc1` [Compound 1017] it was 0.01 to 10 nM; in that of `CC(C)(CNC(=O)c1ccc(Nc2nc(NC3(c4ccc(Cl)cc4)CC3)nc(OCC(F)(F)F)n2)cc1)CNc1c(NC2CCCCCC2)c(=O)c1=O` [Compound 1009], 0.01 to 10 nM. Consider `CCOc1c(NC[C@H](NC(=O)c2ccc(Nc3nc(NC4(c5ccc(Cl)cc5)CC4)nc(OCC(F)(F)F)n3)cc2)C(=O)OC)c(=O)c1=O` [Compound 1002, (S)-methyl 2-(4-(4-(1-(4-chlorophenyl)cyclopropylamino)-6-(2,2,2-trifluoroethoxy)-1,3,5-triazin-2-ylamino)benzamido)-3-(2-ethoxy-3,4-dioxocyclobut-1-enylamino)propanoate], for which, under setting [2], the EC50 is 10 to 1000 nM. With `O=C(N[C@@H](CCNc1c(Nc2ccccc2)c(=O)c1=O)C(=O)O)c1ccc(Nc2nc(NC3(c4ccc(Cl)cc4)CC3)nc(OCC(F)(F)F)n2)cc1` [Compound 1016], the EC50 under setting [2] lay within 0.01 to 10 nM. Take `CC(C)(CNC(=O)c1ccc(Nc2nc(NC3(c4ccc(Cl)cc4)CC3)nc(OCC(F)(F)F)n2)cc1)CNc1c(NCC2CC2)c(=O)c1=O` [Compound 1007]: under setting [2], the EC50 lay within 0.01 to 10 nM.

As to `CC(C)(CNC(=O)c1ccc(Nc2nc(NC3(c4ccc(Cl)cc4)CC3)nc(OCC(F)(F)F)n2)cc1)CNc1c(Nc2ccccc2)c(=O)c1=O` [Compound 1013], the EC50 under setting [2] lay in the range of 0.01 to 10 nM. Take `COC(=O)[C@H](CNc1c(OC)c(=O)c1=O)NC(=O)c1ccc(Nc2nc(NC3(c4ccc(Cl)cc4)CC3)nc(OCC(F)(F)F)n2)cc1` [Compound 1001, (S)-methyl 2-(4-(4-(1-(4-chlorophenyl)cyclopropylamino)-6-(2,2,2-trifluoroethoxy)-1,3,5-triazin-2-ylamino)benzamido)-3-(2-methoxy-3,4-dioxocyclobut-1-enylamino)propanoate]: the EC50 by setting is: under setting [1], 117 nM; under setting [2], 10 to 1000 nM. The matching figures for `CC(C)(CNC(=O)c1ccc(Nc2nc(NC3(c4ccc(Cl)cc4)CC3)nc(OCC(F)(F)F)n2)cc1)CNc1c(O)c(=O)c1=O` [Compound 1006]: 0.52 nM and 0.01 to 10 nM. Turning to `O=C(N[C@@H](CCNc1c(NC2CCCCCCC2)c(=O)c1=O)C(=O)O)c1ccc(Nc2nc(NC3(c4ccc(Cl)cc4)CC3)nc(OCC(F)(F)F)n2)cc1` [Compound 1012], the EC50 under setting [2] lay within 0.01 to 10 nM. Same read-out and setting: in the case of `CCOc1c(NCC(C)(C)CNC(=O)c2ccc(Nc3nc(NC4(c5ccc(Cl)cc5)CC4)nc(OCC(F)(F)F)n3)cc2)c(=O)c1=O` [Compound 1005, 4-((4-((1-(4-chlorophenyl)cyclopropyl)amino)-6-(2,2,2-trifluoroethoxy)-1,3,5-triazin-2-yl)amino)-N-(3-((2-ethoxy-3,4-dioxocyclobut-1-en-1-yl)amino)-2,2-dimethylpropyl)benzamide] it was 0.01 to 10 nM. Take `CCOC(=O)[C@H](CCNc1c(NC2CCCCCC2)c(=O)c1=O)NC(=O)c1ccc(Nc2nc(NC3(c4ccc(Cl)cc4)CC3)nc(OCC(F)(F)F)n2)cc1` [Compound 1021]: the EC50 was 1.24 nM under setting [1] and 0.01 to 10 nM under setting [2]. The matching figures for `COC(=O)[C@H](CNc1c(O)c(=O)c1=O)NC(=O)c1ccc(Nc2nc(NC3(c4ccc(Cl)cc4)CC3)nc(OCC(F)(F)F)n2)cc1` [Compound 1003, (S)-methyl 2-(4-(4-(1-(4-chlorophenyl)cyclopropylamino)-6-(2,2,2-trifluoroethoxy)-1,3,5-triazin-2-ylamino)benzamido)-3-(2-hydroxy-3,4-dioxocyclobut-1-enylamino)propanoate]: 47 nM and 10 to 1000 nM.

`CCOc1c(NC[C@H](NC(=O)c2ccc(Nc3nc(NC4(c5ccc(Cl)cc5)CC4)nc(OCC(F)(F)F)n3)cc2)C(=O)O)c(=O)c1=O` [Compound 1004, (S)-2-(4-(4-(1-(4-chlorophenyl)cyclopropylamino)-6-(2,2,2-trifluoroethoxy)-1,3,5-triazin-2-ylamino)benzamido)-3-(2-ethoxy-3,4-dioxocyclobut-1-enylamino)propanoic acid]: under setting [2], the EC50 lay within 10 to 1000 nM.

With `CC(C)(CNC(=O)c1ccc(Nc2nc(NC3(c4ccc(Cl)cc4)CC3)nc(OCC(F)(F)F)n2)cc1)CNc1c(NCc2ccc(F)cc2F)c(=O)c1=O` [Compound 1008], the EC50 is 0.05 nM under setting [1] and 0.01 to 10 nM under setting [2]. `O=C(N[C@@H](CCNc1c(NCc2ccc(F)cc2F)c(=O)c1=O)C(=O)NCc1ccc(F)cc1F)c1ccc(Nc2nc(NC3(c4ccc(Cl)cc4)CC3)nc(OCC(F)(F)F)n2)cc1` [Compound 1020]: the EC50 under setting [2] was in the range of 0.01 to 10 nM.

`O=C(N[C@@H](CCNc1c(N[C@@H]2C[C@H]3CC[C@@H]2C3)c(=O)c1=O)C(=O)N[C@@H]1C[C@H]2CC[C@@H]1C2)c1ccc(Nc2nc(NC3(c4ccc(Cl)cc4)CC3)nc(OCC(F)(F)F)n2)cc1` [Compound 1019]: under setting [2], the EC50 was 10 to 1000 nM. On to `O=C(N[C@@H](CCNc1c(NC2CCCCCC2)c(=O)c1=O)C(=O)NC1CCCCCC1)c1ccc(Nc2nc(NC3(c4ccc(Cl)cc4)CC3)nc(OCC(F)(F)F)n2)cc1` [Compound 1018], for which the EC50 under setting [2] lay within 0.01 to 10 nM. Regarding `O=C(N[C@@H](CCNc1c(NCC2(Cn3ccnc3)CC2)c(=O)c1=O)C(=O)O)c1ccc(Nc2nc(NC3(c4ccc(Cl)cc4)CC3)nc(OCC(F)(F)F)n2)cc1` [Compound 1015], the concentration giving a half-maximal response (EC50) was 6.55 nM under setting [1] and 0.01 to 10 nM under setting [2]. For the compound `CC(C)(CNC(=O)c1ccc(Nc2nc(NC3(c4ccc(Cl)cc4)CC3)nc(OCC(F)(F)F)n2)cc1)CNc1c(NCC2(CN3CCCC3)CC2)c(=O)c1=O` [Compound 1010], under setting [2], the EC50 was in the range of 0.01 to 10 nM.
